Calls of active or inactive are those of the source. No rule for the calls is given here.
System: Broad 7084-01 inhibitor HTS, set 2
Assay: single-concentration hits, screen 7084 set 2 (AID 977613);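 also: host cells are infected with parasite promastigotes that become internalized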

| Compound | active concentration |
| --- | --- |
| O=C(Cc1ccccn1)N1[C@H](CO)[C@H]2c3ccccc3NC[C@H]21 | > 10 µM (inactive) |
| O=C(c1cccnc1)N1CC[C@@H]2[C@@H](CO)Nc3ccc(C4=CCCCC4)cc3[C@@H]21 | > 10 µM (inactive) |
| O=C(Cc1ccccc1)N1C[C@H]2[C@@H](c3ccccc31)[C@@H](CO)N2C(=O)c1cccc(F)c1 | > 10 µM (inactive) |
| COC(=O)c1ccc(CN2CC(=O)N3[C@H](CO)[C@@H](c4ccc(-c5cccnc5)cc4)[C@H]3C2)cc1 | > 10 µM (inactive) |
| CCC(=O)N1CC2(C1)[C@@H](c1ccc(-c3ccc(F)cc3)cc1)[C@H](CO)N2C(=O)CC | > 10 µM (inactive) |
| CCS(=O)(=O)N1CC(=O)N2[C@H](C1)[C@@H](c1ccc(C#CC3CCCCC3)cc1)[C@@H]2CO | > 10 µM (inactive) |
| O=C(C[C@H]1CC[C@H]2[C@@H](COC[C@@H](O)CN2CC2CCOCC2)O1)NCC1CCCCC1 | > 10 µM (inactive) |
| Cc1ccc(CN2CC(=O)N3[C@H](C2)[C@@H](c2ccc(-c4ccccc4F)cc2)[C@@H]3CO)cc1 | > 10 µM (inactive) |
| O=C(C[C@@H]1CC[C@@H]2[C@H](COC[C@@H](O)CN2S(=O)(=O)c2ccccc2)O1)Nc1ccccc1 | > 10 µM (inactive) |
| CCCNC(=O)N1CC(=O)N2[C@H](CO)[C@H](c3ccc(C#CCC4CCCC4)cc3)[C@@H]2C1 | > 10 µM (inactive) |
| OC[C@@H]1[C@H](c2ccccc2)C2(CN(Cc3nccs3)C2)N1Cc1cccnc1 | > 10 µM (inactive) |
| COc1cccc(C(=O)Nc2ccc3c(c2)C(=O)N(C)[C@H]2CC[C@@H](CC(=O)NCCCN4CCOCC4)O[C@@H]2CO3)c1 | > 10 µM (inactive) |
| CN(C)CC(=O)N1CCCCN2[C@@H](CO)[C@@H](c3ccc(/C=C/c4ccccc4)cc3)[C@@H]2C1 | < 10 µM |
| O=C(C[C@@H]1CC[C@@H]2[C@H](COC[C@H](O)CN2Cc2ccccc2)O1)NCCc1ccccc1 | > 10 µM (inactive) |
| O=C(c1ccccc1F)N1CC(=O)N2[C@H](CO)[C@@H](c3ccc(C#Cc4ccccc4)cc3)[C@H]2C1 | > 10 µM (inactive) |
| Cc1ccc(CN2CC(=O)N3[C@H](C2)[C@H](c2ccc(-c4ccccc4F)cc2)[C@@H]3CO)cc1 | > 10 µM (inactive) |
| OC[C@H]1[C@H]2c3ccccc3NC[C@H]2N1Cc1cccnc1 | > 10 µM (inactive) |
| Cc1ccc(S(=O)(=O)N2CC[C@H]3[C@H](CO)Nc4ccc(C#Cc5ccc(F)cc5)cc4[C@H]32)cc1 | > 10 µM (inactive) |
| CCC(=O)N1C[C@H]2[C@@H](c3ccccc31)[C@H](CO)N2C(=O)CC | > 10 µM (inactive) |
| CC=Cc1ccc2n(c1=O)C[C@H]1[C@H](CO)[C@@H](C(=O)Nc3ccc(-c4ccccc4)cc3)[C@@H]2N1C(=O)CC (mixture of isomers) | > 10 µM (inactive) |
| COc1ccc(NC(=O)N2CCCCN3[C@H](C2)[C@H](c2ccc(-c4ccccc4F)cc2)[C@@H]3CO)cc1 | > 10 µM (inactive) |
| O=C(C[C@@H]1CC[C@H]2[C@@H](COC[C@@H](O)CN2CC2CC2)O1)NCC1CC1 | > 10 µM (inactive) |
| CC=Cc1ccc2n(c1=O)C[C@H]1[C@H](CO)[C@@H](C(=O)Nc3ccccc3)N(CC3CCCC3)[C@@H]21 (mixture of isomers) | > 10 µM (inactive) |
| O=C(NCC(F)(F)F)[C@H]1[C@H](CO)[C@H]2Cn3c(cccc3=O)[C@H]2N1Cc1cccc(F)c1 | > 10 µM (inactive) |

| Compound | active concentration |
| --- | --- |
| COC(=O)C[C@@H]1CC[C@@H]2[C@@H](COc3ccc(NS(=O)(=O)c4ccccc4Cl)cc3C(=O)N2C)O1 | > 10 µM (inactive) |
| O=C(Nc1ccccc1)N1CC(=O)N2[C@@H](CO)[C@@H](c3ccc(C#CC4CCCCC4)cc3)[C@@H]2C1 | > 10 µM (inactive) |
| COc1ccccc1C(=O)Nc1ccc2c(c1)C(=O)N(C)[C@@H]1CC[C@H](CC(=O)NCCc3ccncc3)O[C@@H]1CO2 | > 10 µM (inactive) |
| CC(C)C#Cc1ccc([C@H]2[C@H](CO)N3C(=O)CN(C(=O)Cc4ccccc4)C[C@@H]23)cc1 | > 10 µM (inactive) |
| CCC(=O)N1C[C@@H]2[C@H](c3ccccc31)[C@H](CO)N2C(=O)CC | > 10 µM (inactive) |
| COCCNC(=O)[C@H]1[C@H](CO)[C@H]2Cn3c(ccc(-c4cccc(F)c4)c3=O)[C@@H]1N2C(=O)NC(C)C | > 10 µM (inactive) |
| CN1C(=O)c2cc(NC(=O)C3CCOCC3)ccc2OC[C@H]2O[C@@H](CC(=O)NCCc3ccncc3)CC[C@H]21 | > 10 µM (inactive) |
| O=S(=O)(Cc1ccccc1)N1[C@H](CO)[C@@H](c2ccccc2)C12CN(CCC(F)(F)F)C2 | > 10 µM (inactive) |
| CN(C)C(=O)C[C@@H]1CC[C@H]2[C@@H](COC[C@@H](O)CN2CC2CCCC2)O1 | > 10 µM (inactive) |
| OC[C@@H]1[C@H](c2ccc(C#CC3(O)CCCC3)cc2)[C@@H]2CN(Cc3cncnc3)CCCCN12 | > 10 µM (inactive) |
| CN(C)C(=O)c1cccc(-c2ccc([C@@H]3[C@@H](CO)N4C(=O)CN(C(=O)C5CCC5)C[C@@H]34)cc2)c1 | > 10 µM (inactive) |
| COCC(=O)N1CC2(CCN(C(=O)c3ccccn3)CC2)c2c(n(C)c3cc(OC)ccc23)[C@H]1CO | > 10 µM (inactive) |
| N#C[C@@H]1[C@H](c2ccccc2C2=CCCCC2)[C@@H](CO)N1C(=O)C1CCOCC1 | > 10 µM (inactive) |
| COCC(=O)N1CC2(C1)[C@H](c1ccc(-c3ccc(C)cc3)cc1)[C@@H](CO)N2C(C)=O | > 10 µM (inactive) |
| COc1ccc(NC(=O)N2CC(=O)N3[C@@H](CO)[C@H](c4ccc(Br)cc4)[C@@H]3C2)cc1 | > 10 µM (inactive) |
| O=C(C1CC1)N1CC2(C1)[C@H](c1ccccc1)[C@H](CO)N2Cc1nccs1 | > 10 µM (inactive) |
| CC(C)C#Cc1ccc([C@H]2[C@@H](CO)N3C(=O)CN(C(=O)Cc4ccccc4)C[C@@H]23)cc1 | > 10 µM (inactive) |
| CN1CCN(C(=O)C[C@@H]2CC[C@H]3[C@@H](COC[C@@H](O)CN3CC3CC3)O2)CC1 | > 10 µM (inactive) |
| O=C(C[C@@H]1CC[C@H]2[C@@H](COC[C@@H](O)CN2Cc2cccc(C(F)(F)F)c2)O1)NCc1ccccc1 | > 10 µM (inactive) |
| COc1ccc2c3c([nH]c2c1)[C@@H](CO)NCC31CN(Cc2cc(F)ccc2F)C1 | > 10 µM (inactive) |
| O=C(c1cccc(F)c1)N1C[C@@H]2[C@H](c3ccccc31)[C@@H](CO)N2C(=O)C1CCOCC1 | > 10 µM (inactive) |
| N#C[C@H]1[C@@H](c2ccccc2-c2ccccc2F)[C@H](CO)N1C(=O)C1CCC1 | > 10 µM (inactive) |
| O=C(C[C@@H]1CC[C@H]2[C@@H](COC[C@H](O)CN2Cc2cccc(F)c2)O1)NCc1cccc(F)c1 | > 10 µM (inactive) |
| CN1C(=O)c2cc(NS(C)(=O)=O)ccc2OC[C@H]2O[C@@H](CC(=O)NC3CCCCC3)CC[C@H]21 | > 10 µM (inactive) |

| Compound | active concentration |
| --- | --- |
| O=C(c1ccccc1)N1CC(=O)N2[C@H](CO)[C@@H](c3ccc(-c4ccccc4)cc3)[C@H]2C1 | > 10 µM (inactive) |
| O=C(CC1CC1)N1CC(=O)N2[C@H](CO)[C@@H](c3ccc(/C=C/c4ccccc4)cc3)[C@@H]2C1 | > 10 µM (inactive) |
| O=C(Nc1cccc(Cl)c1)N1C[C@@H]2[C@H](c3ccccc31)[C@@H](CO)N2CC1CCOCC1 | > 10 µM (inactive) |
| Cc1ccc(NC(=O)Nc2ccc3c(c2)C(=O)N(C)[C@@H]2CC[C@@H](CC(=O)NCC(F)(F)F)O[C@@H]2CO3)cc1 | > 10 µM (inactive) |
| C[C@H](O)C#Cc1ccc([C@H]2[C@@H](CO)N3CCCCN(C(=O)c4ccc5c(c4)OCO5)C[C@@H]23)cc1 | > 10 µM (inactive) |
| O=C(C[C@H]1CC[C@@H]2[C@H](COC[C@H](O)CN2C(=O)Cc2ccccc2)O1)NC1CCCC1 | > 10 µM (inactive) |
| CCCNC(=O)N1[C@H](CO)[C@@H]2c3ccccc3N(C(=O)C3CCC3)C[C@@H]21 | > 10 µM (inactive) |
| CCNC(=O)Nc1ccc2c(c1)C(=O)N(C)[C@@H]1CC[C@@H](CC(=O)N[C@H](C)c3ccccc3)O[C@H]1CO2 | > 10 µM (inactive) |
| CN(C)C(=O)C[C@H]1CC[C@H]2[C@@H](COC[C@@H](O)CN2C(=O)C2CC2)O1 | > 10 µM (inactive) |
| COC(=O)C[C@H]1CC[C@@H]2[C@H](COc3ccc(NS(=O)(=O)c4ccccc4Cl)cc3C(=O)N2C)O1 | > 10 µM (inactive) |
| COc1ccc2c3c(n(C)c2c1)[C@@H](CO)N(CC1CCOCC1)CC31CN(Cc2nccs2)C1 | > 10 µM (inactive) |
| CCNC(=O)Nc1ccc2c(c1)C(=O)N(C)[C@H]1CC[C@@H](CC(=O)N[C@@H](C)c3ccccc3)O[C@H]1CO2 | > 10 µM (inactive) |
| Cc1ccccc1S(=O)(=O)N1CC[C@@H]2[C@H]1c1cc(C#Cc3ccccc3)ccc1N[C@@H]2CO | > 10 µM (inactive) |
| CCCNC(=O)N1[C@H](CO)[C@@H](c2ccccc2C2=CCCCC2)[C@@H]1C#N | > 10 µM (inactive) |
| C/C=C/c1ccc([C@H]2[C@@H](CO)N(C(C)=O)C23CN(C(=O)c2ccc(F)cc2)C3)cc1 | > 10 µM (inactive) |
| CC1C=NC(S(=O)(=O)N2CC[C@H]3[C@@H](CO)N(C)c4ccc(-c5ccccc5F)cc4[C@H]32)=N1 (stereo not given in full) | > 10 µM (inactive) |
| O=C(Nc1ccc(-c2ccccc2)cc1)[C@@H]1[C@@H](CO)[C@@H]2Cn3c(cccc3=O)[C@H]1N2Cc1ccncc1 | > 10 µM (inactive) |
| O=C(Nc1ccc(F)cc1)N1CC(=O)N2[C@H](C1)[C@H](c1ccc(C#Cc3cccnc3)cc1)[C@@H]2CO | > 10 µM (inactive) |
| CCCC#Cc1ccc([C@@H]2[C@@H](CO)N3CCCCN(CCC)C[C@@H]23)cc1 | > 10 µM (inactive) |
| COc1cccc(NC(=O)Nc2ccc3c(c2)C(=O)N(C)[C@H]2CC[C@@H](CC(=O)NCCc4ccccc4)O[C@H]2CO3)c1 | > 10 µM (inactive) |
| N#C[C@H]1[C@@H](c2ccccc2C2=CCCC2)[C@H](CO)N1S(=O)(=O)c1ccccc1 | > 10 µM (inactive) |
| O=C(C1CCOCC1)N1CC(=O)N2[C@@H](CO)[C@@H](c3ccc(C#CCc4ccccc4)cc3)[C@@H]2C1 | > 10 µM (inactive) |

— PubChem BioAssay AID977613 (Broad Institute, 2014)
